Source: ChEMBL document CHEMBL5214920, “Emerging impact of triazoles as anti-tubercular agent” (Eur J Med Chem, 2022)
Converted amounts (≈) assume the structure as drawn.

tested on: Mycobacterium tuberculosis; assay: Antitubercular activity against Mycobacterium tuberculosis H37Rv ATCC 27294 assessed as bacterial growth inhibition measured after 7 days by MABA method; format: functional; conditions: H37Rv ATCC 27294, 168 h, time 7 day

SMILES	MIC
O=C(Cn1cc(COc2ccc([N+](=O)[O-])cc2)nn1)Nc1ccc(Cl)cc1	> 25 µg/mL
O=C(Cn1cc(COc2ccccc2)nn1)Nc1ccccc1Cl	> 25 µg/mL
Cc1ccccc1NC(=O)Cn1cc(COc2ccc([N+](=O)[O-])cc2)nn1	> 25 µg/mL
Cc1ccc(NC(=O)Cn2cc(COc3ccc([N+](=O)[O-])cc3)nn2)cc1	> 25 µg/mL
COc1ccc(OCc2cn(CC(=O)Nc3ccc(C)cc3)nn2)cc1	> 25 µg/mL
COc1ccc(OCc2cn(CC(=O)Nc3ccccc3)nn2)cc1	> 25 µg/mL
O=C(Cn1cc(COc2ccc([N+](=O)[O-])cc2)nn1)Nc1cccc(Cl)c1	> 25 µg/mL
Cc1cccc(NC(=O)Cn2cc(COc3ccccc3)nn2)c1	> 25 µg/mL
Cc1cccc(NC(=O)Cn2cc(COc3ccc([N+](=O)[O-])cc3)nn2)c1	> 25 µg/mL
COc1ccc(OCc2cn(CC(=O)Nc3ccc(Cl)cc3)nn2)cc1	> 25 µg/mL
O=C(Cn1cc(COc2ccccc2)nn1)Nc1ccc(Cl)cc1	> 25 µg/mL
COc1ccc(OCc2cn(CC(=O)Nc3ccccc3Cl)nn2)cc1	> 25 µg/mL
COc1ccc(OCc2cn(CC(=O)Nc3cccc(Cl)c3)nn2)cc1	> 25 µg/mL
COc1ccc(OCc2cn(CC(=O)Nc3cccc(C)c3)nn2)cc1	> 25 µg/mL
Cc1ccccc1NC(=O)Cn1cc(COc2ccccc2)nn1	> 25 µg/mL
O=C(c1ccccc1)C1C(c2cc3ccccc3nc2N2NNc3ccccc32)C2CCCN2C12C(=O)Nc1ccccc12 (stereo not given)	1.13 µM
O=C(Cn1cc(COc2ccccc2)nn1)Nc1cccc(Cl)c1	> 25 µg/mL
O=C(Cn1cc(COc2ccc([N+](=O)[O-])cc2)nn1)Nc1ccccc1	> 25 µg/mL
COc1ccc(OCc2cn(CC(=O)Nc3ccccc3C)nn2)cc1	> 25 µg/mL
O=C(Cn1cc(COc2ccc([N+](=O)[O-])cc2)nn1)Nc1ccccc1Cl	> 25 µg/mL
Cc1ccc(NC(=O)Cn2cc(COc3ccccc3)nn2)cc1	> 25 µg/mL

tested on: Mycobacterium tuberculosis; assay: Antitubercular activity against Mycobacterium tuberculosis H37Rv assessed as bacterial growth inhibition measured after 5 days by MABA method; format: functional; conditions: 120 h, time 5 day

SMILES	MIC	MIC90 [µM]
COc1ccc(-n2ncn(Cc3cc4ccccc4nc3Cl)c2=O)cc1	0.078 µM	–
CCc1nn(-c2ccccc2)c(=O)n1N(Cc1ccccc1)Cn1nnc2ccccc21	3.12 µg/mL	–
COc1ccc(-n2ncn(Cc3cc4cc(OC)ccc4nc3Cl)c2=O)cc1	0.075 µM	–
N/N=c1\ccc2ccccc2o1	50 µg/mL	–
CCc1nn(-c2ccccc2)c(=O)n1N(Cc1ccc(O)cc1)CN(CC)CC	6.25 µg/mL	–
COc1ccc(-n2ncn(Cc3cc4cc(C)ccc4nc3Cl)c2=O)cc1	0.077 µM	–
CC1=CC(C)Oc2cc(OCc3cn(Cc4cc(=O)oc5ccc(Cl)cc45)nn3)ccc21 (stereo not given)	6.25 µg/mL	–
Cc1ccc2nc(O)c(Cn3cnn(-c4ccccc4)c3=O)cc2c1	–	0.073 (≈ 0.0243 µg/mL)
CC1=CC(C)Oc2cc(OCc3cn(Cc4cc(=O)oc5ccc6ccccc6c45)nn3)ccc21 (stereo not given)	6.25 µg/mL	–
COc1ccc2nc(O)c(Cn3cnn(-c4ccccc4)c3=O)cc2c1	0.074 µM	–
O=C(O)c1cn(C2CC2)c2cc(N3CCNCC3)c(F)cc2c1=O [CIPROFLOXACIN]	3.12 µg/mL	–
NC(=O)c1cnccn1 [PYRAZINAMIDE]	3.12 µg/mL	–

tested on: Mycobacterium tuberculosis; assay: Antitubercular activity against Mycobacterium tuberculosis H37Rv assessed as bacterial growth inhibition measured after 24 hrs by agar micro dilution method; format: functional; conditions: not given

SMILES	MIC [µg/mL]
COc1ccccc1C1NN=C2C1Sc1nc(-c3ccc(C)cc3)nn12 (stereo not given)	3.12 (≈ 8.6 µM)
Cc1ccc(-c2nc3n(n2)C2=NOC(c4cccc([N+](=O)[O-])c4)C2S3)cc1 (stereo not given)	3.12 (≈ 8.24 µM)
Cc1ccc(-c2nc3n(n2)C2=NNC(c4ccc([N+](=O)[O-])cc4)C2S3)cc1 (stereo not given)	3.12 (≈ 8.26 µM)
Cc1ccc(-c2nc3n(n2)C2=NOC(c4ccccc4)C2S3)cc1 (stereo not given)	3.12 (≈ 9.34 µM)
Cc1ccc(-c2nc3n(n2)C2=NOC(c4ccc(N(C)C)cc4)C2S3)cc1 (stereo not given)	3.12 (≈ 8.28 µM)
Cc1ccc(-c2nc3n(n2)C2=NOC(c4ccc([N+](=O)[O-])cc4)C2S3)cc1 (stereo not given)	3.12 (≈ 8.24 µM)
Cc1ccc(-c2nc3n(n2)C2=NNC(c4ccc(Cl)cc4)C2S3)cc1 (stereo not given)	3.12 (≈ 8.49 µM)
Cc1ccc(-c2nc3n(n2)C2=NNC(c4ccc(N(C)C)cc4)C2S3)cc1 (stereo not given)	3.12 (≈ 8.3 µM)
COc1ccc(C2NN=C3C2Sc2nc(-c4ccc(C)cc4)nn23)cc1 (stereo not given)	3.12 (≈ 8.6 µM)
Cc1ccc(-c2nc3n(n2)C2=NOC(c4ccc(Cl)cc4)C2S3)cc1 (stereo not given)	3.12 (≈ 8.47 µM)
Cc1ccc(-c2nc3n(n2)C2=NOC(c4ccc(Br)cc4)C2S3)cc1 (stereo not given)	3.12 (≈ 7.56 µM)
Cc1ccc(-c2nc3n(n2)C2=NNC(c4ccc(Br)cc4)C2S3)cc1 (stereo not given)	3.12 (≈ 7.58 µM)
COc1ccc(C2ON=C3C2Sc2nc(-c4ccc(C)cc4)nn23)cc1 (stereo not given)	3.12 (≈ 8.58 µM)
Cc1ccc(-c2nc3n(n2)C2=NNC(c4cccc([N+](=O)[O-])c4)C2S3)cc1 (stereo not given)	3.12 (≈ 8.26 µM)
COc1ccccc1C1ON=C2C1Sc1nc(-c3ccc(C)cc3)nn12 (stereo not given)	3.12 (≈ 8.58 µM)

tested on: Mycobacterium tuberculosis; assay: Antitubercular activity against Mycobacterium tuberculosis H37Rv assessed as bacterial growth inhibition measured after 7 days by direct susceptibility assay; format: functional; conditions: 168 h, time 7 day

SMILES	MIC [µg/mL]
COc1c(N2CCNCC2)c(F)cc2c(=O)c(C(=O)O)cn(C3CC3)c12	1.56 (≈ 4.32 µM)
COc1c(N2CCN(Cc3cn(CCN4C(=O)/C(=N\NC(N)=O)c5cc(Cl)ccc54)nn3)CC2)c(F)cc2c(=O)c(C(=O)O)cn(C3CC3)c12	0.39 (≈ 0.552 µM)
O=C(O)c1cn(C2CC2)c2c(NO)c(N3CCN(Cc4cn(CCN5C(=O)/C(=N\O)c6ccccc65)nn4)CC3)c(F)cc2c1=O	0.39 (≈ 0.617 µM)
O=C(O)c1cn(C2CC2)c2cc(N3CCN(Cc4cn(CCN5C(=O)Cc6ccccc65)nn4)CC3)c(F)cc2c1=O	0.2 (≈ 0.35 µM)
O=C1C(=O)N(Cc2cn(Cc3ccc([N+](=O)[O-])c([N+](=O)[O-])c3)nn2)c2ccccc21	7.56 (≈ 18.5 µM)
CO/N=C1/C(=O)C(CCOCCOCCOCCn2cc(CN3C(=O)/C(=N/OC)c4cc(F)ccc43)nn2)c2ccccc21 (stereo not given)	128 (≈ 210 µM)
O=C1C(=O)N(Cc2cn(Cc3ccc(Br)cc3)nn2)c2ccccc21	8.09 (≈ 20.4 µM)
O=C(O)c1cn(C2CC2)c2cc(N3CCNCC3)c(F)cc2c1=O [CIPROFLOXACIN]	3.12 (≈ 9.42 µM)

tested on: Mycobacterium tuberculosis; assay: Antitubercular activity against Mycobacterium tuberculosis H37Rv assessed as bacterial growth inhibition measured after 7 days by REMA method; format: functional; conditions: 168 h, time 7 day

SMILES	MIC [µg/mL]
O=c1nc(NCc2cn(-c3ccc(Cl)cc3)nn2)sc2c(Cl)cc(C(F)(F)F)cc12	0.03 (≈ 0.0635 µM)
O=c1nc(NCc2cn(-c3ccc(Cl)cc3)nn2)sc2c(Cl)cc(Cl)cc12	0.03 (≈ 0.0684 µM)
O=c1nc(NCc2cn(-c3ccc(Cl)cc3)nn2)sc2c(Cl)cc(Br)cc12	0.03 (≈ 0.0621 µM)
O=c1nc(NCc2cn(-c3ccc(Cl)cc3)nn2)sc2c(Cl)cc(F)cc12	0.03 (≈ 0.071 µM)
Cc1cc(=O)oc2cc(OCc3cn(CCCCCCCCn4cc(COc5cc6oc(=O)cc(C)c6cc5Cl)nn4)nn3)c(Cl)cc12	1.56 (≈ 2.25 µM)
Cc1cc(=O)oc2cc(OCc3cn(CCCCCCCCCCn4cc(COc5cc6oc(=O)cc(C)c6cc5Cl)nn4)nn3)c(Cl)cc12	1.56 (≈ 2.16 µM)
COc1ccc(-n2nc(C)cc2Cn2cncn2)cc1	100 (≈ 371 µM)

tested on: Mycobacterium tuberculosis; assay: Antitubercular activity against Mycobacterium tuberculosis H37Rv ATCC 27294 assessed as bacterial growth inhibition measured after 5 days by MABA method; format: functional; conditions: H37Rv ATCC 27294, 120 h, time 5 day

SMILES	MIC
Cc1nc2ncccn2c1C(=O)NCc1cn(Cc2ccc(C#N)cc2)nn1	1.56 µg/mL
Cc1nc2ccccn2c1C(=O)NCc1cn(Cc2ccc(C(F)(F)F)cc2)nn1	1.56 µg/mL
C[C@H](CCC(=O)COc1cn(C[C@H]2O[C@@H](n3cnc4c(N)ncnc43)[C@@H]3OC(C)(C)O[C@@H]32)nn1)C12CCCC1C1CCC3C[C@H](O)CC[C@]3(C)C1CC2 (stereo not given in full)	4.09 µg/mL
COc1ccc2nc(Cl)c(C(=O)NCc3cn(CC(=O)c4ccc(F)cc4)nn3)cc2c1	1.6 µg/mL
O=C(NCc1cn(Cc2ccc(C(F)(F)F)cc2)nn1)c1cn2cccnc2n1	1.56 µg/mL
Cc1nc2ccccn2c1C(=O)NCc1cn(Cc2ccccc2F)nn1	1.56 µg/mL
Cc1nc2ccccn2c1C(=O)NCc1cn(Cc2ccc([N+](=O)[O-])cc2)nn1	1.56 µg/mL
COc1ccc2nc(Cl)c(C(=O)NCc3cn(Cc4ccccc4)nn3)cc2c1	1.6 µg/mL
Cc1ccc(Cn2cc(CNC(=O)c3cn4ccccc4n3)nn2)cc1	1.56 µg/mL
Cc1nc2ncccn2c1C(=O)NCc1cn(Cc2ccc(C(F)(F)F)cc2)nn1	1.56 µg/mL
COc1ccc(Cn2cc(CNC(=O)c3cn4ccccc4n3)nn2)cc1	1.56 µg/mL
O=C(NCc1cn(Cc2ccc([N+](=O)[O-])cc2)nn1)c1cn2cccnc2n1	1.56 µg/mL
COc1ccc(Cn2cc(CNC(=O)c3cc4cc(OC)ccc4nc3Cl)nn2)cc1	1.6 µg/mL
Cc1ccc(Cn2cc(CNC(=O)c3cn4cccnc4n3)nn2)cc1	1.56 µg/mL
O=C(NCc1cn(Cc2ccc([N+](=O)[O-])cc2)nn1)c1cn2ccccc2n1	1.56 µg/mL
COc1ccc(Cn2cc(CNC(=O)c3c(C)nc4ccccn34)nn2)cc1	1.56 µg/mL
Cc1nc2ncccn2c1C(=O)NCc1cn(Cc2ccccc2F)nn1	1.56 µg/mL

SMILES	MIC
COc1ccc(C(=O)Cn2cc(CNC(=O)c3cc4cc(OC)ccc4nc3Cl)nn2)cc1	1.6 µg/mL
Cc1ccc(Cn2cc(CNC(=O)c3c(C)nc4ccccn34)nn2)cc1	1.56 µg/mL
Cc1ccc(Cn2cc(CNC(=O)c3c(C)nc4ncccn34)nn2)cc1	1.56 µg/mL
COc1ccc2nc(Cl)c(C(=O)NCc3cn(Cc4ccc(C#N)cc4)nn3)cc2c1	1.6 µg/mL
COc1ccc(Cn2cc(CNC(=O)c3c(C)nc4ncccn34)nn2)cc1	1.56 µg/mL
O=C(NCc1cn(Cc2ccc(C(F)(F)F)cc2)nn1)c1cn2ccccc2n1	1.56 µg/mL
Cc1nc2ncccn2c1C(=O)NCc1cn(Cc2ccc([N+](=O)[O-])cc2)nn1	1.56 µg/mL
COc1ccc(Cn2cc(COCc3c(-c4ccc(OC)cc4)nc4ccccn34)nn2)cc1	1.56 µg/mL
O=C(NCc1cn(Cc2ccccc2F)nn1)c1cn2cccnc2n1	1.56 µg/mL
COc1ccc(-c2nc3ccccn3c2COCc2cn(Cc3ccc(C)cc3)nn2)cc1	1.56 µg/mL
COc1ccc(Cn2cc(CNC(=O)c3cn4cccnc4n3)nn2)cc1	1.56 µg/mL
O=C(NCc1cn(Cc2ccccc2F)nn1)c1cn2ccccc2n1	1.56 µg/mL
N#Cc1ccc(Cn2cc(CNC(=O)c3cn4cccnc4n3)nn2)cc1	1.56 µg/mL
COc1ccc(Cn2cc(COCc3c(-c4ccccc4F)nc4ccccn34)nn2)cc1	1.56 µg/mL
O=C(O)c1cn(C2CC2)c2cc(N3CCNCC3)c(F)cc2c1=O [CIPROFLOXACIN]	3.12 µM
NC(=O)c1cnccn1 [PYRAZINAMIDE]	3.12 µg/mL

tested on: Mycobacterium tuberculosis; assay: Antitubercular activity against Mycobacterium tuberculosis H37Rv assessed as bacterial growth inhibition measured after 7 days by MABA method; format: functional; conditions: 168 h, time 7 day

SMILES	MIC [µg/mL]
CCCCCc1ccc(-c2cn(CC(O)COc3ccc4c(c3)OC3(CCCCC3)CC4=O)nn2)cc1 (stereo not given)	0.78 (≈ 1.55 µM)
Cc1ccc2c(c1)C=CC1(CCc3c(nnn3-c3ccccc3)C1)O2 (stereo not given)	1.56 (≈ 4.74 µM)
COc1ccc(-n2nnc3c2CCC2(C=Cc4cc(Cl)ccc4O2)C3)cc1 (stereo not given)	1.56 (≈ 4.11 µM)
COc1ccc(-n2nnc3c2CCC2(C=Cc4cc(C)ccc4O2)C3)cc1 (stereo not given)	1.56 (≈ 4.34 µM)
